Columns and labels:
downy brome = test: Test C pre-/postemergence test; type: in vivo, Bromus tectorum; settings: for Plant response rating, Bromegrass, Downy: 31 g ai/ha, scale 0 to 100 (0 no effect, 100 complete control)
Outline: (§1)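 Test chemicals were formulated with surfactant in a non-phytotoxic solvent and sprayed both on freshly planted seeds (preemergence) and on 1- to 4-leaf plants of 2–18 cm (postemergence). Flooded-paddy pots received compound directly into 3 cm of standing water, maintained for the test.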

giant foxtail [1] = test: Test A pre-/postemergence greenhouse test; type: in vivo, Setaria faberi; settings: for Plant response rating, Foxtail, Giant: 0 to 100 scale where 0 is no effect and 100 is complete control; for Foxtail, Giant plant response rating: 0 to 100 scale
Outline: (§2)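 Test compounds in non-phytotoxic solvent with surfactant were applied as a preemergence soil spray to seeded loam/sand pots and, concurrently, postemergence to plants at 2–10 cm, one- to two-leaf stage. About ten days in greenhouse, then injury visually rated against untreated controls.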

Surinam grass = test: Test C pre-/postemergence test; type: in vivo, Brachiaria decumbens; settings: for Plant response rating, Surinam Grass: 31 g ai/ha, scale 0 to 100 (0 no effect, 100 complete control)
Outline: as §1

crabgrass = test: Test C pre-/postemergence test; type: in vivo, Digitaria sanguinalis; settings: for Plant response rating, Crabgrass, Large: 31 g ai/ha, scale 0 to 100 (0 no effect, 100 complete control)
Outline: as §1

morningglory = test: Test C pre-/postemergence test; type: in vivo, Ipomoea coccinea; settings: for Plant response rating, Morningglory: 31 g ai/ha, scale 0 to 100 (0 no effect, 100 complete control)
Outline: as §1

corn = test: Test A pre-/postemergence greenhouse test; type: in vivo, Zea mays; settings: for Plant response rating, Corn: 0 to 100 scale where 0 is no effect and 100 is complete control; for Corn plant response rating: 0 to 100 scale
Outline: as §2

catchweed bedstraw = test: Test C pre-/postemergence test; type: in vivo, Galium aparine
Outline: as §1

velvetleaf = test: Test A pre-/postemergence greenhouse test; type: in vivo, Abutilon theophrasti; settings: for Plant response rating, Velvetleaf: 0 to 100 scale where 0 is no effect and 100 is complete control; for Velvetleaf plant response rating: 0 to 100 scale
Outline: as §2

pigweed = test: Test C pre-/postemergence test; type: in vivo, Amaranthus retroflexus; settings: for Plant response rating, Pigweed: 31 g ai/ha, scale 0 to 100 (0 no effect, 100 complete control)
Outline: as §1

soybean = test: Test C pre-/postemergence test; type: in vivo, Glycine max; settings: for Plant response rating, Soybean: 31 g ai/ha, scale 0 to 100 (0 no effect, 100 complete control)
Outline: as §1

johnsongrass = test: Test C pre-/postemergence test; type: in vivo, Sorghum halepense; settings: for Plant response rating, Johnsongrass: 31 g ai/ha, scale 0 to 100 (0 no effect, 100 complete control)
Outline: as §1

barnyardgrass = test: Test C flooded paddy test; type: in vivo, Echinochloa crus-galli; settings: Flood
Outline: (§3)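 Compound was added to standing water 3 cm above soil, flood maintained, and plants held in a greenhouse before visual scoring against controls at 13 to 15 days.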

lambsquarters = test: Test C pre-/postemergence test; type: in vivo, Chenopodium album; settings: for Plant response rating, Lambsquarters: 31 g ai/ha, scale 0 to 100 (0 no effect, 100 complete control)
Outline: as §1

rice = test: Test C flooded paddy test; type: in vivo, Oryza sativa; settings: Flood
Outline: as §3

wheat = test: Test A pre-/postemergence greenhouse test; type: in vivo, Triticum aestivum; settings: for Plant response rating, Wheat: 0 to 100 scale where 0 is no effect and 100 is complete control; for Wheat plant response rating: 0 to 100 scale
Outline: as §2

bermudagrass = test: Test C pre-/postemergence test; type: in vivo, Cynodon dactylon; settings: for Plant response rating, Bermudagrass: 31 g ai/ha
Outline: as §1

giant foxtail [2] = test: Test C pre-/postemergence test; type: in vivo, Setaria faberii; settings: for Plant response rating, Foxtail, Giant: 31 g ai/ha, scale 0 to 100 (0 no effect, 100 complete control)
Outline: as §1

[3] = 62 g ai/ha, Preemergence, scale 0 to 100
[4] = 125 g ai/ha, preemergence, scale 0 (no effect) to 100 (complete control)
[5] = preemergence, 250 g ai/ha, scale 0 (no effect) to 100 (complete control)
[6] = Postemergence, 500 g ai/ha, 0 is no effect, 100 is complete control
[7] = Preemergence, 125 g ai/ha, 0 no effect, 100 complete control
[8] = Preemergence, 500 g ai/ha, 0 no effect, 100 complete control
[9] = 62 g ai/ha, scale 0 to 100 (0 no effect, 100 complete control)
[10] = 250 g ai/ha, scale 0 to 100, 0 no effect, 100 complete control, 13 to 15 days
[11] = 62 g ai/ha, Preemergence, scale 0 to 100 (0 no effect, 100 complete control)
[12] = Preemergence, scale 0 to 100 (0 no effect, 100 complete control)

C#CCOc1c(CS(=O)(=O)c2cccc[n+]2[O-])c(C(F)(F)F)nn1C [Compound 103]
Bromegrass, Downy plant response rating (downy brome; [3]): 0 | Bromegrass, Downy plant response rating (downy brome; [4]): 70 | Plant response rating, Bromegrass, Downy (downy brome; Preemergence): 0 | Bromegrass, Downy plant response rating (downy brome; [5]): 70 | Plant response rating, Foxtail, Giant (giant foxtail [1]; Postemergence, 125 g ai/ha): 80 | Foxtail, Giant plant response rating (giant foxtail [1]; [6]): 90 | Foxtail, Giant plant response rating (giant foxtail [1]; [7]): 80 | Foxtail, Giant plant response rating (giant foxtail [1]; [8]): 100 | Surinam Grass plant response rating (Surinam grass; [3]): 80 | Surinam Grass plant response rating (Surinam grass; [4]): 90 | Plant response rating, Surinam Grass (Surinam grass; Preemergence): 0 | Surinam Grass plant response rating (Surinam grass; [5]): 95 | Crabgrass, Large plant response rating (crabgrass; [3]): 98 | Crabgrass, Large plant response rating (crabgrass; [4]): 100 | Plant response rating, Crabgrass, Large (crabgrass; Preemergence): 90 | Crabgrass, Large plant response rating (crabgrass; [5]): 100 | Morningglory plant response rating (morningglory; [3]): 55 | Morningglory plant response rating (morningglory; [4]): 80 | Plant response rating, Morningglory (morningglory; Preemergence): 0 | Morningglory plant response rating (morningglory; [5]): 98 | Plant response rating, Corn (corn; Postemergence, 125 g ai/ha): 0 | Corn plant response rating (corn; [6]): 60 | Corn plant response rating (corn; [7]): 0 | Corn plant response rating (corn; [8]): 60 | Galium plant response rating (catchweed bedstraw; [3]): 98 | Galium plant response rating (catchweed bedstraw; [4]): 98 | Galium plant response rating (catchweed bedstraw; [5]): 100 | Plant response rating, Velvetleaf (velvetleaf; Postemergence, 125 g ai/ha): 40 | Velvetleaf plant response rating (velvetleaf; [6]): 70 | Velvetleaf plant response rating (velvetleaf; [7]): 20 | Velvetleaf plant response rating (velvetleaf; [8]): 80 | Pigweed plant response rating (pigweed; [3]): 100 | Pigweed plant response rating (pigweed; [4]): 100 | Plant response rating, Pigweed (pigweed; Preemergence): 60 | Pigweed plant response rating (pigweed; [5]): 100 | Soybean plant response rating (soybean; [3]): 0 | Soybean plant response rating (soybean; [4]): 10 | Plant response rating, Soybean (soybean; Preemergence): 0 | Soybean plant response rating (soybean; [5]): 50 | Johnsongrass plant response rating (johnsongrass; [3]): 100 | Johnsongrass plant response rating (johnsongrass; [4]): 100 | Plant response rating, Johnsongrass (johnsongrass; Preemergence): 30 | Johnsongrass plant response rating (johnsongrass; [5]): 100 | Plant response rating, Barnyardgrass (barnyardgrass; [9]): 0 | Plant response rating, Barnyardgrass (barnyardgrass; [10]): 0 | Lambsquarters plant response rating (lambsquarters; [3]): 50 | Lambsquarters plant response rating (lambsquarters; [4]): 50 | Plant response rating, Lambsquarters (lambsquarters; Preemergence): 10 | Lambsquarters plant response rating (lambsquarters; [5]): 95 | Plant response rating, Rice (rice; [9]): 0 | Plant response rating, Rice (rice; [10]): 0 | Plant response rating, Wheat (wheat; Postemergence, 125 g ai/ha): 20 | Wheat plant response rating (wheat; [6]): 50 | Wheat plant response rating (wheat; [7]): 10 | Wheat plant response rating (wheat; [8]): 80 | Bermudagrass plant response rating (bermudagrass; [11]): 100 | Bermudagrass plant response rating (bermudagrass; [4]): 100 | Plant response rating, Bermudagrass (bermudagrass; [12]): 40 | Bermudagrass plant response rating (bermudagrass; [5]): 100 | Foxtail, Giant plant response rating (giant foxtail [2]; [3]): 95 | Foxtail, Giant plant response rating (giant foxtail [2]; [4]): 100 | Plant response rating, Foxtail, Giant (giant foxtail [2]; Preemergence): 55 | Foxtail, Giant plant response rating (giant foxtail [2]; [5]): 100

Cc1cc[n+]([O-])c(S(=O)(=O)Cc2c(C(F)(F)F)nn(C)c2OC(C)C(F)(F)F)c1 (centres unmarked) [Compound 96]
Bromegrass, Downy plant response rating (downy brome; [3]): 50 | Plant response rating, Bromegrass, Downy (downy brome; Preemergence): 50 | Bromegrass, Downy plant response rating (downy brome; [5]): 55 | Plant response rating, Foxtail, Giant (giant foxtail [1]; Postemergence, 125 g ai/ha): 70 | Foxtail, Giant plant response rating (giant foxtail [1]; [6]): 80 | Foxtail, Giant plant response rating (giant foxtail [1]; [7]): 100 | Plant response rating, Foxtail, Giant (giant foxtail [1]; Preemergence, 500 g ai/ha): 100 | Surinam Grass plant response rating (Surinam grass; [3]): 80 | Surinam Grass plant response rating (Surinam grass; [4]): 100 | Plant response rating, Surinam Grass (Surinam grass; Preemergence): 75 | Surinam Grass plant response rating (Surinam grass; [5]): 100 | Crabgrass, Large plant response rating (crabgrass; [3]): 85 | Crabgrass, Large plant response rating (crabgrass; [4]): 95 | Plant response rating, Crabgrass, Large (crabgrass; Preemergence): 80 | Crabgrass, Large plant response rating (crabgrass; [5]): 98 | Morningglory plant response rating (morningglory; [3]): 70 | Morningglory plant response rating (morningglory; [4]): 95 | Plant response rating, Morningglory (morningglory; Preemergence): 0 | Morningglory plant response rating (morningglory; [5]): 100 | Plant response rating, Corn (corn; Postemergence, 125 g ai/ha): 20 | Corn plant response rating (corn; [7]): 0 | Plant response rating, Corn (corn; Preemergence, 500 g ai/ha): 50 | Galium plant response rating (catchweed bedstraw; [3]): 80 | Galium plant response rating (catchweed bedstraw; [4]): 98 | Plant response rating, Galium (catchweed bedstraw; Preemergence, 31 g ai/ha, scale 0 to 100 (0 no effect, 100 complete control)): 0 | Galium plant response rating (catchweed bedstraw; [5]): 100 | Plant response rating, Velvetleaf (velvetleaf; Postemergence, 125 g ai/ha): 50 | Velvetleaf plant response rating (velvetleaf; [6]): 60 | Velvetleaf plant response rating (velvetleaf; [7]): 40 | Velvetleaf plant response rating (velvetleaf; [8]): 100 | Pigweed plant response rating (pigweed; [3]): 70 | Pigweed plant response rating (pigweed; [4]): 70 | Plant response rating, Pigweed (pigweed; Preemergence): 10 | Pigweed plant response rating (pigweed; [5]): 100 | Soybean plant response rating (soybean; [3]): 20 | Soybean plant response rating (soybean; [4]): 40 | Plant response rating, Soybean (soybean; Preemergence): 20 | Soybean plant response rating (soybean; [5]): 70 | Johnsongrass plant response rating (johnsongrass; [3]): 95 | Johnsongrass plant response rating (johnsongrass; [4]): 100 | Plant response rating, Johnsongrass (johnsongrass; Preemergence): 70 | Johnsongrass plant response rating (johnsongrass; [5]): 100 | Plant response rating, Barnyardgrass (barnyardgrass; [9]): 0 | Plant response rating, Barnyardgrass (barnyardgrass; [10]): 0 | Lambsquarters plant response rating (lambsquarters; [3]): 100 | Lambsquarters plant response rating (lambsquarters; [4]): 100 | Plant response rating, Lambsquarters (lambsquarters; Preemergence): 50 | Lambsquarters plant response rating (lambsquarters; [5]): 100 | Plant response rating, Rice (rice; [9]): 0 | Plant response rating, Rice (rice; [10]): 20 | Plant response rating, Wheat (wheat; Postemergence, 125 g ai/ha): 50 | Wheat plant response rating (wheat; [6]): 70 | Wheat plant response rating (wheat; [7]): 20 | Wheat plant response rating (wheat; [8]): 80 | Bermudagrass plant response rating (bermudagrass; [11]): 100 | Bermudagrass plant response rating (bermudagrass; [4]): 100 | Plant response rating, Bermudagrass (bermudagrass; [12]): 85 | Bermudagrass plant response rating (bermudagrass; [5]): 100 | Foxtail, Giant plant response rating (giant foxtail [2]; [3]): 80 | Foxtail, Giant plant response rating (giant foxtail [2]; [4]): 95 | Plant response rating, Foxtail, Giant (giant foxtail [2]; Preemergence): 80 | Foxtail, Giant plant response rating (giant foxtail [2]; [5]): 98

Reference: patent US20100298141A1, “SUBSTITUTED PYRIDINE N-OXIDE HERBICIDES” (E. I. DU PONT DE NEMOURS AND COMPANY, priority 2007, published 2010)
